We go through 23 compounds from patent publication US9994551B2, “Pyridazine derivatives as RORc modulators” (Genentech, Inc., priority 2015, dated 2018).

Each structure is given as a SMILES string.

As a reminder, the IC50 is the concentration that inhibits the measured activity by half. Read a high IC50 as lower potency.

The target in the experiment is T1, RORc ligand binding domain (Homo sapiens, UniProt P51449).
T1 construct: host or cells: E. coli
T1 sequence (P51449 269-508 limits assumed): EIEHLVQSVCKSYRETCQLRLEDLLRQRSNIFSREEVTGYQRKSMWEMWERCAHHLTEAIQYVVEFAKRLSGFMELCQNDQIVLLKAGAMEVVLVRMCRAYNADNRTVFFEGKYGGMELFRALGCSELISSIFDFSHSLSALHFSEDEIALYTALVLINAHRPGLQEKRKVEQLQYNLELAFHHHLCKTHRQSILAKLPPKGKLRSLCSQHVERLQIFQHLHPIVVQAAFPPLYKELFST
The experiment can be described thus: In vitro RORc ligand binding assay (25-[3H]hydroxycholesterol displacement, filter binding). The method, then:
This assay was used to determine a compound's potency in inhibiting activity of RORc by determining, Kiapp, IC50, or percent inhibition values.
On day of the assay, 100 uL of 0.05% CHAPS (in deionized H2O) was added to all wells of the GFB Unifilter plate and allowed soak for 1 h. A wash buffer of 50 mM HEPES (pH 7.4), 150 mM NaCl, and 5 mM MgCl2 was prepared to wash the filter plate. To prepare an assay buffer, BSA was added to the wash buffer to reach 0.01% and DTT was added to reach 1 mM.
The 20× compound stocks were diluted in DMSO with Assay Buffer 4-fold to reach 5× the final test concentration in 25% DMSO (10 uL compound+30 uL Assay Buffer). Solutions were mixed by aspiration several times with a pipette set on 50 uL volume. For the assay, 10 uL of 5× compound stock solutions in 25% DMSO were added to the assay plate in duplicate.
For two point screening, 10 mM stock compound solutions were diluted in DMSO to obtain 200 uM (20× the high test concentration) and then diluted 10-fold further to reach 20 uM (20× the low test concentration). The 20× stocks were diluted 4-fold with Assay Buffer (10 uL compound+30 uL Assay Buffer) to reach 5× the test concentrations (50 uM and 5 uM) and 10 uL were added to two assay plates for the duplicate wells. With each concentration tested on 2 plates, each set of 80 compounds used 4 assay plates (1 uM and 10 uM, with n=2).
For 25-hydroxycholesterol in 25% DMSO/75% Assay Buffer; 10 uL per well was used for NSB samples. Wells for Total Binding and No Receptor sample determination contained 10 uL of 25% DMSO/75% Assay Buffer per well.
Add 20 uL to all wells to reach 6 nM final concentration in the assay.
Stock receptor solution was diluted in assay buffer to obtain 1.5 ug/mL in Assay Buffer. 20 uL was added to all wells. For No Receptor samples, 20 uL Assay Buffer was substituted for receptor solution.
Assay plates were 96-well polypropylene V-bottom plates. 10 uL of 5× compound in 25% DMSO/75% Assay Buffer was added to Test wells. 10 uL of 25% DMSO/75% Assay Buffer was added to Total Binding or No Receptor wells. 10 uL of 5 uM 25-hydroxycholesterol in 25% DMSO/75% Assay Buffer was added to NSB wells. […] 20 uL of 1.5 ug/mL RORc receptor was added to wells (or 40 uL Assay Buffer to No R wells). Following addition to the wells, the plates were incubated 3 h at 25° C.
Using a Packard Filtermate Harvester, the filter plate were washed 4 times following transfer of the incubated samples. Plates were dry-filtered completely (2 h at 50° C. or overnight at room temperature). 50 uL Microscint 0 was added to all wells and read on Topcount protocol Inverted.
Consider `CC1(C)[C@H]2CC[C@]1([C@@H]1CN(c3nc(CO)co3)CCO1)c1nnc(-c3c(F)cccc3F)cc12` [Compound 130, [2-[2-[5-(2,6-difluorophenyl)-11,11-dimethyl-3,4-diazatricyclo[6.2.1.02,7]undeca-2,4,6-trien-1-yl]morpholin-4-yl]oxazol-4-yl]methanol], for which the IC50 is 8.8 nM. To `CC1(C)[C@H]2CC[C@]1([C@H]1CCCN(C(=O)NC3(CO)COC3)C1)c1nnc(-c3c(F)cccc3F)cc12` [Compound 171] belongs 6.5 nM; to `CNC(=O)c1cncc(O[C@@]23CC[C@@H](c4cc(-c5c(F)cccc5F)nnc42)C3(C)C)n1` [Compound 29, 6-(((5S,8R)-3-(2,6-difluorophenyl)-9,9-dimethyl-5,6,7,8-tetrahydro-5,8-methanocinnolin-8-yl)oxy)-N-methylpyrazine-2-carboxamide], 385 nM. The compound `CC(=O)N1CCN(C)C[C@@H]1[C@@]12CC[C@@H](c3cc(-c4c(F)cccc4F)nnc31)C2(C)C` [Compound 182, 1-[2-[5-(2,6-difluorophenyl)-11,11-dimethyl-3,4-diazatricyclo[6.2.1.02,7]undeca-2,4,6-trien-1-yl]-4-methyl-piperazin-1-yl]ethanone] displayed an IC50 of 9.1 nM.

Consider `CC1(C)[C@H]2CC[C@]1(Oc1cncc(C(=O)NCCO)n1)c1nnc(-c3c(F)cccc3F)cc12` [Compound 30, 6-(((5S,8R)-3-(2,6-difluorophenyl)-9,9-dimethyl-5,6,7,8-tetrahydro-5,8-methanocinnolin-8-yl)oxy)-N-(2-hydroxyethyl)pyrazine-2-carboxamide], for which the IC50 was 836 nM. In the case of `C[C@H](O)C(=O)N(C)[C@@]12CC[C@@H](c3cc(-c4c(F)cccc4F)nnc31)C2(C)C` [Compound 1, (S)-N-((5R,8R)-3-(2,6-difluorophenyl)-9,9-dimethyl-5,6,7,8-tetrahydro-5,8-methanocinnolin-8-yl)-2-hydroxy-N-methylpropanamide], the 50% inhibitory concentration (IC50) amounted to 920 nM. As for `CC1(C)[C@H]2CC[C@]1([C@@H]1CN(c3ccccn3)CCO1)c1nnc(-c3c(F)cccc3F)cc12` [Compound 79, (R)-2-((5R,8R)-3-(2,6-difluorophenyl)-9,9-dimethyl-5,6,7,8-tetrahydro-5,8-methanocinnolin-8-yl)-4-(pyridin-2-yl)morpholine], the figure is 412 nM. In turn, `CC[C@@H](O[C@@]12CC[C@@H](c3cc(-c4c(F)cccc4F)nnc31)C2(C)C)c1nc[nH]n1` [Compound 40, (5S,8R)-8-((R)-1-(1H-1,2,4-triazol-3-yl)propoxy)-3-(2,6-difluorophenyl)-9,9-dimethyl-5,6,7,8-tetrahydro-5,8-methanocinnoline] displayed an IC50 of 50.1 nM.

Compound `CC1(C)[C@H]2CC[C@]1(OS(=O)(=O)C(F)(F)F)c1nnc(-c3c(F)cccc3F)cc12` [Compound 6, (5S,8R)-3-(2,6-difluorophenyl)-9,9-dimethyl-5,6,7,8-tetrahydro-5,8-methanocinnolin-8-yl trifluoromethanesulfonate] registered an IC50 of 6 nM. As for `CC1(C)[C@H]2CC[C@]1(Oc1cccnn1)c1nnc(-c3c(F)cccc3F)cc12` [Compound 16, (5S,8R)-3-(2,6-difluorophenyl)-9,9-dimethyl-8-(pyridazin-3-yloxy)-5,6,7,8-tetrahydro-5,8-methanocinnoline], the figure is 254 nM; as for `CC[C@@H](O[C@@]12CC[C@@H](c3cc(-c4c(F)cccc4F)nnc31)C2(C)C)C(=O)N1CC(C#N)C1` [Compound 37, 1-((R)-2-(((5S,8R)-3-(2,6-difluorophenyl)-9,9-dimethyl-5,6,7,8-tetrahydro-5,8-methanocinnolin-8-yl)oxy)butanoyl)azetidine-3-carbonitrile], 68.9 nM. To `CNC(=O)c1cnc(O[C@@]23CC[C@@H](c4cc(-c5c(F)cccc5F)nnc42)C3(C)C)cn1` [Compound 9, 5-(((5S,8R)-3-(2,6-difluorophenyl)-9,9-dimethyl-5,6,7,8-tetrahydro-5,8-methanocinnolin-8-yl)oxy)-N-methylpyrazine-2-carboxamide] belongs 325 nM. Turning to `CNC(=O)c1nnc([C@@]23CC[C@@H](c4cc(-c5c(F)cccc5F)nnc42)C3(C)C)o1` [Compound 3, 5-((5R,8R)-3-(2,6-difluorophenyl)-9,9-dimethyl-5,6,7,8-tetrahydro-5,8-methanocinnolin-8-yl)-N-methyl-1,3,4-oxadiazole-2-carboxamide], the concentration for half-maximal inhibition (IC50) came to 283 nM. In turn, `CCO[C@@]12CC[C@@H](c3cc(-c4c(F)cccc4F)nnc31)C2(C)C` [Compound 7, (5S,8R)-3-(2,6-difluorophenyl)-8-ethoxy-9,9-dimethyl-5,6,7,8-tetrahydro-5,8-methanocinnoline] gave a half-inhibitory concentration (IC50) of 9.3 nM. Take `Cc1coc(N2CCO[C@@H]([C@@]34CC[C@@H](c5cc(-c6c(F)cccc6F)nnc53)C4(C)C)C2)n1` [Compound 145, 2-[5-(2,6-difluorophenyl)-11,11-dimethyl-3,4-diazatricyclo[6.2.1.02,7]undeca-2,4,6-trien-1-yl]-4-(4-methyloxazol-2-yl)morpholine]: the half-maximal inhibitory concentration (IC50) is 18 nM. With `Cc1nnc(CO[C@@]23CC[C@@H](c4cc(-c5c(F)cccc5F)nnc42)C3(C)C)o1` [Compound 8, 2-((((5S,8R)-3-(2,6-difluorophenyl)-9,9-dimethyl-5,6,7,8-tetrahydro-5,8-methanocinnolin-8-yl)oxy)methyl)-5-methyl-1,3,4-oxadiazole], the IC50 is 140 nM. To `Cc1n[nH]c(N2CCC[C@H]([C@@]34CC[C@@H](c5cc(-c6c(F)cccc6F)nnc53)C4(C)C)C2)n1` [Compound 173, 5-(2,6-difluorophenyl)-11,11-dimethyl-1-[1-(3-methyl-1H-1,2,4-triazol-5-yl)-3-piperidyl]-3,4-diazatricyclo[6.2.1.02,7]undeca-2,4,6-triene] belongs 2.8 nM. In turn, `CC1(C)[C@H]2CC[C@]1([C@H]1CCCN(c3cccnn3)C1)c1nnc(-c3c(F)cccc3F)cc12` [Compound 169, 5-(2,6-difluorophenyl)-11,11-dimethyl-1-(1-pyridazin-3-yl-3-piperidyl)-3,4-diazatricyclo[6.2.1.02,7]undeca-2,4,6-triene] yielded an IC50 of 40 nM. Compound `CC1(C)[C@H]2CC[C@]1([C@H]1CCCN(C(=O)c3ccc(=O)[nH]n3)C1)c1nnc(-c3c(F)cccc3F)cc12` [Compound 125, 3-[3-[5-(2,6-difluorophenyl)-11,11-dimethyl-3,4-diazatricyclo[6.2.1.02,7]undeca-2,4,6-trien-1-yl]piperidine-1-carbonyl]-1H-pyridazin-6-one] registered an IC50 of 74 nM.

The compound `CC(C)(C)OC(=O)N1CCN[C@H]([C@@]23CC[C@@H](c4cc(-c5c(F)cccc5F)nnc42)C3(C)C)C1` [Compound 62, (R)-tert-butyl 3-((5R,8S)-3-(2,6-difluorophenyl)-9,9-dimethyl-5,6,7,8-tetrahydro-5,8-methanocinnolin-8-yl)piperazine-1-carboxylate] yielded an IC50 of 136 nM. `CC[C@@H](O[C@@]12CC[C@@H](c3cc(-c4c(F)cccc4F)nnc31)C2(C)C)C(=O)NCc1n[nH]c(=O)[nH]1` [Compound 56, (R)-2-(((5S,8R)-3-(2,6-difluorophenyl)-9,9-dimethyl-5,6,7,8-tetrahydro-5,8-methanocinnolin-8-yl)oxy)-N-((5-oxo-4,5-dihydro-1H-1,2,4-triazol-3-yl)methyl)butanamide] returned a concentration for half-maximal inhibition (IC50) of 95.2 nM. As for `CC1(C)[C@H]2CC[C@]1([C@H]1CCCN(S(C)(=O)=O)C1)c1nnc(-c3c(F)cccc3F)cc12` [Compound 95, (5R,8R)-3-(2,6-difluorophenyl)-9,9-dimethyl-8-((R)-1-(methylsulfonyl)piperidin-3-yl)-5,6,7,8-tetrahydro-5,8-methanocinnoline], the IC50 came out at 344 nM. `CC1(C)[C@H]2CC[C@]1([C@@H]1CN(C(=O)CO)CCO1)c1nnc(-c3c(F)cccc3F)cc12` [Compound 75, 1-((R)-2-((5R,8R)-3-(2,6-difluorophenyl)-9,9-dimethyl-5,6,7,8-tetrahydro-5,8-methanocinnolin-8-yl)morpholino)-2-hydroxyethanone] had a 50% inhibitory concentration (IC50) of 234 nM.
